From patent publication US10729653B2, “Pharmaceutical compositions comprising 2-oxo-1-pyrrolidine derivatives” (UCB BIOPHARMA SRL, priority 2009, dated 2020)

How the values were obtained:
[1] = test system: genetically sound-sensitive male mice; assay: audiogenic seizures in mice; assay type: in vivo; conditions: audiogenic seizure-susceptible mice; i.p., brivaracetam 30 min, levetiracetam 60 min pretreatment
Experimental: Audiogenic seizures in mice: Genetically sound-sensitive male mice (16-28 g; n=10 per group), responding with wild running, clonic and tonic convulsions to an acoustic stimulation, were used. Audiogenic seizures were induced by an acoustic stimulus (90 dB, 10-20 kHz) applied for 30 s. The mice were pretreated with either saline, brivaracetam (i.p., 30 min) or levetiracetam (i.p., 60 min), and the proportion of mice protected against clonic convulsions was used as the end point to assess anticonvulsant activity.

[2] = test system: pentylenetetrazol-induced clonic convulsions in mice; assay: chemically induced seizures in mice (pentylenetetrazol); assay type: in vivo; conditions: i.p. 30 min before seizure induction; higher ED50 values than in audiogenic mice
Experimental: The dose was selected based on dose-effect curves in saline-treated animals as the convulsive dose inducing clonic convulsions of all four extremities in 97% of the animals. Immediately after administration of the chemoconvulsant, the mice were placed individually in small plastic cages (25 13 8 cm) and observed for the presence of clonic convulsions in all four extremities, for 60 min. The occurrence of tonic convulsions (hindlimb extension) and mortality was also recorded during this interval. The proportion of mice protected against clonic convulsions was calculated and used as the end point for anticonvulsant activity.

[3] = test system: tonic hindlimb extension induced by a maximal electroshock in mice; assay: maximal electroshock in mice; assay type: in vivo; conditions: i.p. 30 min before seizure induction; higher ED50 values than in audiogenic mice
corneal kindling of mice = assay: corneal kindling of mice; assay type: in vivo
post-herpetic neuralgia = conditions: patients; cited from earlier work
[4] = test system: fully amygdala-kindled rats; assay: fully amygdala-kindled rats; assay type: in vivo, rat; conditions: for dose from which a significant suppression in motor-seizure severity is induced: fully amygdala-kindled rats
[5] = test system: refractory partial onset seizures; conditions: adult patients, adjunctive treatment; cited from earlier work
GAERS rats = assay: spontaneous SWDs in GAERS rats; assay type: in vivo, rat
rat hippocampal slices [6] = assay: epileptiform responses in hippocampal slices (CA3 field potentials); assay type: cell-based, Sprague-Dawley rats; set-up: rate of spontaneous field bursting: dose or concentration left out as unconfirmed; conditions: for evoked epileptiform responses (PS1 amplitude, repetitive PSs) in CA3: high-K+/low-Ca2+ fluid (HKLCF) perfusion, fimbrial stimulation
Experimental: The effect of brivaracetam on epileptiform responses induced by high-K+/low-Ca2+ concentrations or by bicuculline was examined in transverse hippocampal slices prepared from Sprague-Dawley rats according to previously reported standard procedures. The epileptiform responses were induced by passing from a normal perfusion of artificial cerebrospinal fluid (ACSF) (K+3 mM; Ca2+2.4 mM) to either high-K+/low-Ca2+ fluid (HKLCF) (K+7.5 mM; Ca2+0.5 mM) or to […] bicuculline methiodide (BMI)-containing ACSF.
Extracellular field potentials (FPs) were recorded in the CA3 area of the slices with 2 M NaCl-filled glass microelectrodes. The evoked FPs were recorded at 10-min intervals in response to fimbrial stimulation with constant current rectangular pulses that elicit a single population spike (PS) of 50-75% of the maximal amplitude when the slice is in ACSF. In the HKLCF model, 2 min of spontaneous activity were also recorded, in the middle of each 10-min interval between the recordings of evoked responses.
Either brivaracetam or levetiracetam was added to the bathing fluid of the slices 20 min before shifting from ACSF to either HKLCF or […] BMI-containing ACSF, and was kept in the perfusion fluid throughout the experiment.

rat hippocampal slices [7] = conditions: background statement; cited from earlier work

Structure (SMILES)	protection against the expression of clonic convulsions [1]	protection against clonic convulsions induced by pentylenetetrazol [2]	protection against tonic hindlimb extension induced by a maximal electroshock [3]	incidence of generalized motor seizures after termination of treatment (corneal kindling of mice; continued corneal stimulations, group previously treated with the highest dose)	incidence of generalized motor seizures (corneal kindling of mice; pretreatment during corneal kindling, levetiracetam at higher doses)	efficacy in post-herpetic neuralgia (post-herpetic neuralgia)	dose from which a significant suppression in motor-seizure severity is induced [4] [mg/kg]	after-discharge duration ([4]; highest dose tested (212.3 mg kg-1))	efficacy in the treatment of epilepsy [5]	dose from which spontaneous SWDs are significantly suppressed (GAERS rats; GAERS rats) [mg/kg]	inhibition of spontaneous SWDs (GAERS rats; highest dose tested (67.9 mg kg-1))	rate of spontaneous field bursting (rat hippocampal slices [6]; HKLCF)	evoked epileptiform responses (PS1 amplitude, repetitive PSs) in CA3 (rat hippocampal slices [6])	epileptiform responses induced by high-K+/low-Ca2+ concentrations and by bicuculline (rat hippocampal slices [7])	after-discharge duration ([4]; up to 1700 mg kg-1)
CCC[C@@H]1CC(=O)N([C@@H](CC)C(N)=O)C1 [Brivaracetam, (2S)-2-[(4R)-2-oxo-4-propyl-pyrrolidin-1-yl]butanamide]	protected	protected	protected	persistent reduction in the incidence of generalized motor seizures	significant reduction in the incidence of generalized motor seizures	effective in the treatment of patients with post-herpetic neuralgia	≥ 21.2	significantly reduced the after-discharge duration	effective in the treatment of epilepsy	≥ 2.1	complete inhibition	reduced the rate of this spontaneous bursting	reduced these epileptiform responses	–	–
CC[C@@H](C(N)=O)N1CCCC1=O [Levetiracetam]	protected	–	–	–	–	–	≥ 170	–	–	–	–	–	reduced these epileptiform responses	reduces epileptiform responses	inactive
CC[C@@H](C(N)=O)N1C[C@H](C=C(F)F)CC1=O [Seletracetam, (2S)-2-[(4S)-4-(2,2-difluorovinyl)-2-oxo-pyrrolidin-1-yl]butanamide]	–	–	–	–	–	–	–	–	effective in the treatment of epilepsy	–	–	–	–	–	–
